Measurements as given in ChEMBL document CHEMBL1201862, “PubChem BioAssay data set” (2004).
Activity calls are given as the source filed them.

Key:
[1] = target: Disintegrin and metalloproteinase domain-containing protein 17 (Homo sapiens, UniProt P78536); assay: exosite inhibitors of ADAM17, dose response, biochemical (AID 743260)
[2] = inhibition of ADAM10 peptide cleavage – biochemical, FRET peptide substrate, recombinant human ADAM10, selectivity assay for ADAM17 exosite inhibitor project, dose response (AID 743259);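 note: ADAM10 enzyme cleaving a FRET peptide substrate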
[3] = Luminescence Cell-Based Dose Response HTS to Identify Inhibitors of 5'UTR Stem-Loop Driven Prion Protein mRNA Translation in H4 Neuroglioblastoma Cells. [Related pubchem assays: 1827 (Project Summary), 1813 (Primary HTS)]; format: functional
[4] = alpha-synuclein stem-loop luciferase translation blockers – H4 neuroglioma cells, luminescence, confirmation (AID 1988); format: functional, cell-based
[5] = target: T1, Oxysterols receptor LXR-beta (Homo sapiens, UniProt P55055); format: functional, cell-based;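 note: Cell-based luminescence dose-response assay of agonist activity at LXR, run as a confirmatory counterscreen to a daf-12 agonist screen; HEK293 cells with Gal4-LXR fusion and GAL4-driven luciferase reporter; agonist potency from rising luciferase signal of a Gal4-LXR reporter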
T1 sequence (P55055 whole entry): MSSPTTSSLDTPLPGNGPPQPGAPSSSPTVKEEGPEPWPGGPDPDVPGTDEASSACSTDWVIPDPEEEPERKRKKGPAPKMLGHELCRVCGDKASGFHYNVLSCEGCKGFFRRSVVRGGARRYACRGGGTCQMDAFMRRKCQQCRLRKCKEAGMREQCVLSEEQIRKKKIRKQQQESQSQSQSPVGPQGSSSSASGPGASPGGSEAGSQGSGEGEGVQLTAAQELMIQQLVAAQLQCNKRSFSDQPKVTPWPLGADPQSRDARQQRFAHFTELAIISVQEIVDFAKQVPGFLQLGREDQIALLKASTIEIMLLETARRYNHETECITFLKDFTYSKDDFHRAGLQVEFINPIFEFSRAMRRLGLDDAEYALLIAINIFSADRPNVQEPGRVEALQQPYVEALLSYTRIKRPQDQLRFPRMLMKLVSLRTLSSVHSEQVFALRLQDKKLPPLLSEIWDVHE

cells [6] = assay: cells
[7] = target: FAD-linked sulfhydryl oxidase ALR (Homo sapiens, UniProt P55789); assay: ALR-catalysed DTT oxidation blockers – biochemical, H2O2 detection, luminescence, cherry-pick, dose response (AID 493248)
Albumin = Albumin (Bos taurus, UniProt P02769); assay: Counterscreen for inhibitors of T-cell receptor (TCR)-CD3 interaction: Fluorescence-based biochemical high throughput dose response assay to identify inhibitors of T-cell receptor (TCR)-CD3 interaction using a TAMRA-labeled BSA probe.; format: functional
[8] = target: T2, RNA-binding protein pos-1 (Caenorhabditis elegans, UniProt G5EF15); assay: disruptors of C. elegans POS-1 RNA interaction – biochemical, fluorescence polarization, dose response (AID 1964);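 note: purified POS-1 fused to maltose binding protein made in E. coli; potency of compounds blocking POS-1 binding to fluorescent RNA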
T2 sequence (G5EF15 whole entry): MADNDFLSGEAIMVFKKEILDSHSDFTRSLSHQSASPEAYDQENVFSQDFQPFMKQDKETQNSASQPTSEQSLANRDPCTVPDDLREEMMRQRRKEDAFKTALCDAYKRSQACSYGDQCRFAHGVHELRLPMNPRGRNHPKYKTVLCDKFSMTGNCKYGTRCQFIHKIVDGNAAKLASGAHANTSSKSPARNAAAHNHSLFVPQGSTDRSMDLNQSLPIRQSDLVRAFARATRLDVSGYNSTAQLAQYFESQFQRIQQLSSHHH

[9] = target: T3, Zinc finger protein mex-5 (Caenorhabditis elegans, UniProt Q9XUB2); assay: potency of MEX-5 RNA-binding blockers – biochemical, C. elegans, fluorescence polarization, dose response (AID 1960)
T3 sequence (Q9XUB2 whole entry): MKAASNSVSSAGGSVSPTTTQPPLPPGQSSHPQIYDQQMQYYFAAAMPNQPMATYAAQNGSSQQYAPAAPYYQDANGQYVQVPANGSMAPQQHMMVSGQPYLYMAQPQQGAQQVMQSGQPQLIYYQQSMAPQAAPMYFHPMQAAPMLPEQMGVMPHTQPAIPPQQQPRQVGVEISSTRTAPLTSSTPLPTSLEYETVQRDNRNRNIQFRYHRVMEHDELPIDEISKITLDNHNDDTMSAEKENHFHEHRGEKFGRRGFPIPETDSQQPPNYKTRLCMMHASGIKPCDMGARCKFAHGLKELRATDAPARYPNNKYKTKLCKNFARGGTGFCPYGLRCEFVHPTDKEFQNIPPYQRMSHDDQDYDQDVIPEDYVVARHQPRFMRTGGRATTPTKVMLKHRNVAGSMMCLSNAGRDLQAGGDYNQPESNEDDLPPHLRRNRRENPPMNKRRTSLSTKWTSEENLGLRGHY

[10] = Luminescence-based cell-based high throughput dose response assay to identify activators of the DAF-12 from the parasite S. stercoralis (ssDAF-12).; format: functional
[11] = growth inhibition of yeast DHODH-expressing 3D7 parasites – SYBR Green, dry powder samples, dose response (AID 1159570); format: functional, cell-based;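 note: parasite growth measured after 72 hours of compound exposure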
[12] = toxicity to human HepG2 hepatoma cells – cell-based, plate reader, dry powder samples, cytotoxicity control, dose response (AID 1159569); format: functional;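 note: inhibitor potency with signal falling toward the positive control level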
[13] = P. falciparum Dd2 growth inhibitors, dose response, SYBR Green, cherry-picked samples (AID 1159567); format: functional, cell-based
[14] = Dd2 malaria parasite growth inhibition potency – SYBR Green, dry powder samples, dose response (AID 1159566); format: functional, cell-based;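 note: potency for growth inhibition with lower SYBR green DNA signal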
[15] = toxicity to human hepatoma HepG2 cells – cell-based, cherry-picked samples, cytotoxicity control, dose response (AID 1159577); format: functional
[16] = growth inhibition of PfATP4-mutant resistant parasites – NITD609-resistant line, SYBR Green, dry powder, dose response (AID 1159571); format: functional, cell-based;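 note: parasites synchronized at ring stage by sorbitol before testing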
[17] = target: Mitogen-activated protein kinase 10 (Homo sapiens, UniProt P53779); assay: Dose response biochemical screening assay for inhibitors of c-Jun N-Terminal Kinase 3 (JNK3). [Related pubchem assays: 746 ]
[18] = reduced cellular PGC1a acetyl-lysine signal – cell-based, cherry-picked samples, dose response (AID 720514); format: functional;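 note: potency may reflect raised or lowered acetylation signal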
[19] = Trypanosoma cruzi growth suppression in host cells – NIH3T3 host cells, beta-gal luminescence, confirmation (AID 2044); format: functional, cell-based;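 note: intracellular parasites grown in NIH/3T3 mouse fibroblasts as host cells; luminescent beta-galactosidase reporter signal from transgenic T. cruzi replicating inside host cells; inhibitors lower the luminescence signal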
[20] = NIH3T3 cell viability loss – ATP luminescence, mouse fibroblasts, counter-screen, dose response (AID 2010); format: functional, cell-based;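 note: cells exposed to compound for about 90 hours before reading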
[21] = target: T4, Rac GTPase-activating protein 1 (Homo sapiens, UniProt Q9H0H5); assay: blockers of MgcRacGAP-driven Rac1 GTP hydrolysis – biochemical, ADP Hunter fluorescence, primary and confirmatory, confirmation (AID 624330); format: functional
T4 sequence (Q9H0H5 whole entry): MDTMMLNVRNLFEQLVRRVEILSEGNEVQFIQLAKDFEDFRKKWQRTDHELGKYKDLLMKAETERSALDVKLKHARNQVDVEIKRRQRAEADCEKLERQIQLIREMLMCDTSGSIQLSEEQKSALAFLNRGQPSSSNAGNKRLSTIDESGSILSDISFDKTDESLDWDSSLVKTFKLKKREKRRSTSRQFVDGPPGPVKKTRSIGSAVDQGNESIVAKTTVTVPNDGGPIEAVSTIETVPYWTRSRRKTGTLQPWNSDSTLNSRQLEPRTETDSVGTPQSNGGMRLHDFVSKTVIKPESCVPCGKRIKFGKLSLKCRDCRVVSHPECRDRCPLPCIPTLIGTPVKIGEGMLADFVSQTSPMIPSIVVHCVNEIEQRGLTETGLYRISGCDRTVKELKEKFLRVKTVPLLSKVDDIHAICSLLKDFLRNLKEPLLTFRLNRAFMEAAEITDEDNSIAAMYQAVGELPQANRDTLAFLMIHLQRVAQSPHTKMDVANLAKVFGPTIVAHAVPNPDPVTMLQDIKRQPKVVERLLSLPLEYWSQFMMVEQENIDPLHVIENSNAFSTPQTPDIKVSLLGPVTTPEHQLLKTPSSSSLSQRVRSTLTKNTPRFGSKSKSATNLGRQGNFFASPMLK

cells [22] = assay: cells; remark: listed apart in the source
H9c2 = assay: cells; format: functional, cell-based; settings: Rattus norvegicus, H9c2, Myocardium;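 note: confirmatory concentration-response retest of ultra-high-throughput screening hits for modulation of myocardial damage; cell death induced by hydrogen peroxide oxidative stress; compound pretreatment for 60 min then peroxide exposure for 2 h; potency is for protecting the cells against peroxide damage rather than for killing them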
Paired box protein Pax-8 = Paired box protein Pax-8 (Homo sapiens, UniProt Q06710); assay: PAX8 transcriptional activity inhibition in RMG-I – RMG-I cells, luciferase, cherry-pick, dose response (AID 687027); format: functional, cell-based;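 note: luciferase reporter driven by Pax8 target thyroperoxidase promoter measured by SteadyGlo luminescence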
[23] = general cell-killing toxicity readout – plate reader, dry powder samples, cytotoxicity control for PAX8 inhibitor project, dose response (AID 743021); format: functional, cell-based
[24] = microbe, parasite or virus in culture; format: functional; settings: Mycobacterium tuberculosis

Sequence of Albumin (P02769 whole entry, the tested form may be a part): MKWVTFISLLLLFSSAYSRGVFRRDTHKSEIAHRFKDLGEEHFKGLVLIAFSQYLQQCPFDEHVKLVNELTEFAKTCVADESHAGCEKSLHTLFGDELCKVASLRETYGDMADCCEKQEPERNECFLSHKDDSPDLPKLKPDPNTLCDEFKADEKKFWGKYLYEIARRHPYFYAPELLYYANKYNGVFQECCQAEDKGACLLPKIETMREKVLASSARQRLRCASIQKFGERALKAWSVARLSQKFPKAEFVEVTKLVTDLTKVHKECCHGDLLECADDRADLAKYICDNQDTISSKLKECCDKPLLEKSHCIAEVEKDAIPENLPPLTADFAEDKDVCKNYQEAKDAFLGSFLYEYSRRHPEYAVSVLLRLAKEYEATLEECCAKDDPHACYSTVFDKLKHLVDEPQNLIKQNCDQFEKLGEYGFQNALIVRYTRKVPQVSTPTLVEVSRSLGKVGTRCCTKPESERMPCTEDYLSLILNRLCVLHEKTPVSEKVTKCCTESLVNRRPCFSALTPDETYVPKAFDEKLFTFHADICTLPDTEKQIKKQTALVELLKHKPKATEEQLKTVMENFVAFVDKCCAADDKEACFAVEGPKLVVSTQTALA
Sequence of Disintegrin and metalloproteinase domain-containing protein 17 (P78536 whole entry, the tested form may be a part): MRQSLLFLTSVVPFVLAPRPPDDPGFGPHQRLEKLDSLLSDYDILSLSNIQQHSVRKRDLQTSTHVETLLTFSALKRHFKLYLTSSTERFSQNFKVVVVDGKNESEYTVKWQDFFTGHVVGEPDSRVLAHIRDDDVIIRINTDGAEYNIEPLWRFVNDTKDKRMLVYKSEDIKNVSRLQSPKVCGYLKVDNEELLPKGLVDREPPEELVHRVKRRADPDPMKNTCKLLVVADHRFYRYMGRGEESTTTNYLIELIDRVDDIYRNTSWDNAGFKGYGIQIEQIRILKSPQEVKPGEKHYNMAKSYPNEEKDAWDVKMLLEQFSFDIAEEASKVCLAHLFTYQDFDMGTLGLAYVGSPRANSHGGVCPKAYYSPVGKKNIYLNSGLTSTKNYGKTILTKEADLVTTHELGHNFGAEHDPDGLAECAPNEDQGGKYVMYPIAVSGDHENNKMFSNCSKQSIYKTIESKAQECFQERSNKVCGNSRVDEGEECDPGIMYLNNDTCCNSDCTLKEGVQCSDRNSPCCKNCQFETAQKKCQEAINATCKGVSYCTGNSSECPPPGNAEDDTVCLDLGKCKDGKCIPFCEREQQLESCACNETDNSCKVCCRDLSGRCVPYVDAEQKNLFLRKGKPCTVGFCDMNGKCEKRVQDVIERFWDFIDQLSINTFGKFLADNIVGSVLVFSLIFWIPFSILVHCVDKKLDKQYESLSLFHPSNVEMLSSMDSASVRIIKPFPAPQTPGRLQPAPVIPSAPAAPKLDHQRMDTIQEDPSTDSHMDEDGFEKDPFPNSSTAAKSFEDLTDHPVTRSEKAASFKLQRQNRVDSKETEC
Sequence of Paired box protein Pax-8 (Q06710 whole entry): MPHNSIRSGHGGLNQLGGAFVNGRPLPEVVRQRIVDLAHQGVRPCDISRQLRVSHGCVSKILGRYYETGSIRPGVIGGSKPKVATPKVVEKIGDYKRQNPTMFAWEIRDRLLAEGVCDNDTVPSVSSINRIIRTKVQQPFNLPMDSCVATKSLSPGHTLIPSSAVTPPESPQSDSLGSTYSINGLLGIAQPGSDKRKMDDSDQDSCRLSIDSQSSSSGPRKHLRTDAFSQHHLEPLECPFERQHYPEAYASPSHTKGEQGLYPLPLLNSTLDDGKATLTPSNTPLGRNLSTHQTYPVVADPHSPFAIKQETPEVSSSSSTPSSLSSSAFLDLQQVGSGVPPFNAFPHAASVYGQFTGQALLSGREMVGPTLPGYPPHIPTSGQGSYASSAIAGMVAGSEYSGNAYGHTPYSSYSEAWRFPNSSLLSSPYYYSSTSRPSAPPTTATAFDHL
Sequence of Mitogen-activated protein kinase 10 (P53779 whole entry): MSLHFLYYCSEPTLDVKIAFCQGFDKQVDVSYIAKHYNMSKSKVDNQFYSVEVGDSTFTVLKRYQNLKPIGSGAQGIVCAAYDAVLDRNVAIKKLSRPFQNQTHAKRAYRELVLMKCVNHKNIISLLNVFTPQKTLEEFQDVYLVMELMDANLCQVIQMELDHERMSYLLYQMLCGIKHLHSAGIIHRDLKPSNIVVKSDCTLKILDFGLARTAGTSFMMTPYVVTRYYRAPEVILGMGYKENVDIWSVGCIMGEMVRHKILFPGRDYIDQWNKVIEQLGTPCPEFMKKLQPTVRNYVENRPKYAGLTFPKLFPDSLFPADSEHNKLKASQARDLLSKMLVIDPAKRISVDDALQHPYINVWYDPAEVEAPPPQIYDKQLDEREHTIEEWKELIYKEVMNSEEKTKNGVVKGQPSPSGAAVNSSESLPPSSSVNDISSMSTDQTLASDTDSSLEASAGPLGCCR
Sequence of FAD-linked sulfhydryl oxidase ALR (P55789 whole entry): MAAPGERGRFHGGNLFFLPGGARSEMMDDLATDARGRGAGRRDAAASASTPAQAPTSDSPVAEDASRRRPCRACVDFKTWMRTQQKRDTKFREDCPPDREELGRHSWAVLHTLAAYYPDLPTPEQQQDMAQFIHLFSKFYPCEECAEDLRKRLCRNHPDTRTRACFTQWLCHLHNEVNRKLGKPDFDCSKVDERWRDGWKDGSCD

SMILES: O=C(NC(=S)Nc1ccc2c(c1)OCCO2)c1cccc2ccccc12
- IC50 [1]: > 69.5 µM (inactive)
- IC50 [2]: > 69.5 µM (inactive)

SMILES: Cc1ccc2c(c1)s/c(=N/C(=O)c1cccs1)n2C
- EC50 [3]: 4.15 µM (active)
- EC50 [4]: 4.79 µM (active)
- EC50 [5]: > 67.6 µM (inactive)
- EC50 (cells [6]): > 67.6 µM (inactive)

SMILES: Cc1ccc(-c2nnc(-c3cccc4ccccc34)o2)cc1
- EC50 [5]: > 67.5 µM (inactive)
- EC50 (cells [6]): > 67.5 µM (inactive)

SMILES: Cc1cccc(N2C(=O)/C(=C\NNC(=O)c3ccccc3Cl)c3ccccc3C2=O)n1
- AC50 [7]: 9.36 µM (active)
- IC50 (Albumin): > 94.1 µM (inactive)

SMILES: Cc1ccc(O)c(-c2cc(C(=O)Nc3ccc(S(=O)(=O)Nc4nccc(C)n4)cc3)[nH]n2)c1
- EC50 [8]: 13.1 µM (inconclusive)
- EC50 [9]: 6.59 µM (active)
- IC50 (Albumin): > 94.1 µM (inactive)

SMILES: O=C(NNC(=O)c1cc(Cl)ccc1O)c1cccc(S(=O)(=O)N2CCOCC2)c1
- EC50 [8]: 18.7 µM (inconclusive)
- EC50 [9]: 11.6 µM (active)
- IC50 (Albumin): > 94.1 µM (inactive)

SMILES: Cc1ccc(NC(=O)COC(=O)/C(=C/c2cccs2)c2cccs2)cc1S(=O)(=O)N(C)C
- IC50 [1]: > 69.5 µM (inactive)
- IC50 [2]: > 69.5 µM (inactive)

SMILES: CC(=O)Nc1sc2c(c1-c1nc3ccccc3s1)CCCN(C(C)C)C2
- IC50 [10]: > 67.5 µM (inactive)

SMILES: COc1ccccc1S(=O)(=O)N(C)C[C@@H]1Oc2cc(C#CCC3CCCC3)ccc2S(=O)(=O)N([C@H](C)CO)C[C@H]1C
- AC50 [11]: 0.227 µM (active)
- AC50 [12]: 23.8 µM (active)
- AC50 [13]: 0.309 µM (active)
- AC50 [14]: 0.146 µM (active)
- AC50 [15]: 28.6 µM (active)
- AC50 [16]: 0.104 µM (active)

SMILES: COc1cccc2c(O)c(C/C=C(/C)Cl)c(C)nc12
- IC50 [17]: 75 µM (not active)

SMILES: COc1ccc2c3c(n(C)c2c1)[C@H](CO)NCC31CCN(CC2CCCC2)CC1
- AC50 [11]: 0.449 µM (active)
- AC50 [12]: 46.3 µM (active)
- AC50 [13]: 0.738 µM (active)
- AC50 [14]: 0.481 µM (active)
- AC50 [15]: 35.5 µM (active)
- AC50 [16]: 0.425 µM (active)

SMILES: COC(=O)c1nn(-c2ccccc2)ccc1=O
- AC50 [18]: 5.56 µM (active)

SMILES: Cc1cc(Cl)c(OCCOCCN2CCN(C)CC2)c(Br)c1
- EC50 [19]: < 0.1 µM (active)
- EC50 [20]: > 60 µM (not active)
- IC50 [21]: 63.9 µM (active)
- EC50 (cells [22]): 0.294 µM (active)

SMILES: CCC(c1nnnn1Cc1ccccc1)N1CCC(n2c(O)nc3ccccc32)CC1 (stereo not given)
- IC50 (H9c2): > 79 µM (inactive)
- AC50 (Paired box protein Pax-8): 3.8 µM (active)
- AC50 [23]: 41.4 µM (active)

SMILES: O=C1c2cccc(OCC(=O)N3CCCc4ccccc43)c2CCN1Cc1ccc(Br)cc1
- IC50 [1]: > 69.5 µM (inactive)
- IC50 [2]: > 69.5 µM (inactive)

SMILES: CCc1ccc(-n2nc3cc(C)c(N)cc3n2)cc1
- CC50 [24]: > 40 µM (active)
- IC50 [10]: > 67.5 µM (inactive)
- EC50 [5]: > 67.5 µM (inactive)
- EC50 (cells [6]): > 67.5 µM (inactive)

SMILES: C[C@@H]1CN([C@@H](C)CO)C(=O)c2c(c3ccccc3n2C)-c2ccccc2CO[C@H]1CN(C)S(=O)(=O)c1ccsc1
- AC50 [18]: 29.2 µM (active)

SMILES: C[C@@H]1CN([C@@H](C)CO)S(=O)(=O)c2ccc(/C=C/c3ccccc3)cc2O[C@H]1CN(C)C(=O)c1ccc2c(c1)OCO2
- AC50 [11]: 2.96 µM (active)
- AC50 [12]: 87.3 µM (active)
- AC50 [13]: 2.43 µM (active)
- AC50 [14]: 2.09 µM (active)
- AC50 [16]: 1.18 µM (active)

SMILES: CC1(c2ccccc2)CC(C)(C)N(C(=O)c2cc([N+](=O)[O-])cc([N+](=O)[O-])c2)c2ccccc21 (stereo not given)
- EC50 [19]: < 0.1 µM (active)
- EC50 [20]: 5.58 µM (active)
- EC50 (cells [22]): 0.214 µM (active)
